# Test results from patent US11780826B2 (Amgen Inc., priority 2017, dated 2023).
# Test system: Bovine cardiac myofibrils
# Assay: In vitro model of dose-dependent myofibril ATPase modulation (AC1.4, pyruvate kinase/lactate dehydrogenase-coupled ATPase assay at pCa25)
# Assay type: biochemical
# Conditions: concentration at which ATPase activity was 1.4-fold higher than the bottom of the dose curve, mean of a minimum of two independent tests
# How it was run: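 Coupled-enzyme ATPase on bovine heart myofibrils, 1 mM ATP, EGTA/CaCl2 buffered; 340 nm readout.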
row,SMILES,AC1.4 [µM]
1,"Cc1ccc(CNC(=O)[C@H]2CCCN2C(=O)[C@@H]2CN(S(=O)(=O)N3CC(C#N)C3)CCN2)cc1F [Example 334, 1-(((2S)-4-((3-cyano-1-azetidinyl)sulfonyl)-2-piperazinyl)carbonyl)-N-(3-fluoro-4-methylbenzyl)-D-prolinamide]",0.9294
2,"N#CC1CN(S(=O)(=O)N2CCC[C@H](C(=O)N3CCC[C@@H]3C(=O)NCc3cccc(C(F)(F)F)c3F)C2)C1 [Example 335, 1-(((3S)-1-((3-cyano-1-azetidinyl)sulfonyl)-3-piperidinyl)carbonyl)-N-(2-fluoro-3-(trifluoromethyl)benzyl)-D-prolinamide]",0.9362
3,"Cc1ccc(CNC(=O)[C@H]2CCCN2C(=O)[C@H]2CCCN(S(=O)(=O)N3CC(C#N)C3)C2)cc1C [Example 336, 1-(((3S)-1-((3-cyano-1-azetidinyl)sulfonyl)-3-piperidinyl)carbonyl)-N-(3,4-dimethylbenzyl)-D-prolinamide]",0.9372
4,"C[C@H](C(=O)NCc1ccc(Cl)cc1)N(C)C(=O)c1cccc(S(=O)(=O)N2CC(C#N)C2)c1 [Example 337, N-((1R)-2-((4-chlorobenzyl)amino)-1-methyl-2-oxoethyl)-3-((3-cyano-1-azetidinyl)sulfonyl)-N-methylbenzamide]",0.9477
5,"N#CC1CN(S(=O)(=O)N2CCC[C@H](C(=O)N3CCC[C@@H]3C(=O)NCc3c(F)c(F)c(F)c(F)c3F)C2)C1 [Example 338, 1-(((3S)-1-((3-cyano-1-azetidinyl)sulfonyl)-3-piperidinyl)carbonyl)-N-(pentafluorobenzyl)-D-prolinamide]",0.948
6,"O=C(NCc1ccc(C(F)(F)F)cc1)[C@H]1CCCN1C(=O)[C@H]1CCCN(S(=O)(=O)N2CCC2c2ccccc2)C1 (stereo partly drawn) [Example 339, 1-(((3S)-1-(((2R)-2-phenyl-1-azetidinyl)sulfonyl)-3-piperidinyl)carbonyl)-N-(4-(trifluoromethyl)benzyl)-D-prolinamide,1-(((3S)-1-(((2S)-2-phenyl-1-azetidinyl)sulfonyl)-3-piperidinyl)carbonyl)-N-(4-(trifluoromethyl)benzyl)-D-prolinamide]",0.9511
7,"NS(=O)(=O)c1cccc(C(=O)N2C[C@H]3C[C@H]3[C@@H]2C(=O)N[C@@H](c2cc(F)c(Cl)cc2F)C2CC2)c1 [Example 340, (1R,2R,5S)-N-((R)-(4-chloro-2,5-difluorophenyl)(cyclopropyl)methyl)-3-(3-sulfamoylbenzoyl)-3-azabicyclo[3.1.0]hexane-2-carboxamide]",0.8898
8,"C[C@H](C(=O)NCc1ccc(Cl)c(Cl)c1)N(C)C(=O)c1cccc(S(=O)(=O)N2CC(C#N)C2)c1 [Example 341, 3-((3-cyano-1-azetidinyl)sulfonyl)-N-((1R)-2-((3,4-dichlorobenzyl)amino)-1-methyl-2-oxoethyl)-N-methylbenzamide]",0.9606
9,"CS(=O)(=O)c1cncc(C(=O)N2CSC[C@@H]2C(=O)N[C@@H](c2ccc(C(F)(F)F)cc2F)C2CC2)c1 [Example 342, (4S)-N-((R)-cyclopropyl(2-fluoro-4-(trifluoromethyl)phenyl)methyl)-3-((5-(methylsulfonyl)-3-pyridinyl)carbonyl)-1,3-thiazolidine-4-carboxamide]",0.9661
10,"O=C(NCc1ccc(C(F)(F)F)cc1)[C@H]1CCCN1C(=O)[C@H]1CCCN(S(=O)(=O)N2CC(OC(F)F)C2)C1 [Example 343, 1-(((3S)-1-((3-(difluoromethoxy)-1-azetidinyl)sulfonyl)-3-piperidinyl)carbonyl)-N-(4-(trifluoromethyl)benzyl)-D-prolinamide]",0.9742
11,"CS(=O)(=O)c1cccc(C(=O)N2[C@@H](C(=O)N[C@@H](c3ccc(Cl)cc3F)C3CC3)C[C@H]3C[C@H]32)c1 [Example 344, (1R,3R,5R)-N-((R)-(4-chloro-2-fluorophenyl)(cyclopropyl)methyl)-2-(3-(methylsulfonyl)benzoyl)-2-azabicyclo[3.1.0]hexane-3-carboxamide]",0.9555
12,"CS(=O)(=O)c1ccc(N)c(C(=O)N2CCC[C@@H]2C(=O)N[C@@H](c2ccc(C(F)(F)F)cc2F)C2CC2)c1 [Example 345, 1-(2-amino-5-(methylsulfonyl)benzoyl)-N-((R)-cyclopropyl(2-fluoro-4-(trifluoromethyl)phenyl)methyl)-D-prolinamide]",0.9744
13,"COC(=O)CN(C)S(=O)(=O)c1cccc(C(=O)N2CCC[C@@H]2C(=O)NCc2ccc(C(F)(F)F)cc2)c1 [Example 346, methyl (R)-2-(N-methyl-3-(2-((4-(trifluoromethyl)benzyl)carbamoyl)pyrrolidine-1-carbonyl)phenylsulfonamido)acetate]",1.0139
14,"O=C(N[C@@H](c1ccc(C(F)(F)F)cc1F)C1CC1)[C@H]1CCCCN1C(=O)c1cccc(C(O)C(F)(F)F)c1 (stereo partly drawn) [Example 347, (2R)-N-((R)-cyclopropyl(2-fluoro-4-(trifluoromethyl)phenyl)methyl)-1-(3-(2,2,2-trifluoro-1-hydroxyethyl)benzoyl)piperidine-2-carboxamide]",1.0255
15,"N#CC1CN(S(=O)(=O)N2CCC[C@H](C(=O)N3[C@@H](C(=O)NCc4ccc(C(F)(F)F)cn4)C[C@H]4C[C@H]43)C2)C1 [Example 348, (1R,3R,5R)-2-(((3S)-1-((3-cyano-1-azetidinyl)sulfonyl)-3-piperidinyl)carbonyl)-N-((5-(trifluoromethyl)-2-pyridinyl)methyl)-2-azabicyclo[3.1.0]hexane-3-carboxamide]",1.0273
16,"NC(=O)C1(c2cccc(C(=O)N3[C@@H](C(=O)N[C@@H](c4ccc(C(F)(F)F)cc4F)C4COC4)C[C@H]4C[C@H]43)c2)CC1 [Example 349, (1R,3R,5R)-2-(3-(1-carbamoylcyclopropyl)benzoyl)-N-((R)-(2-fluoro-4-(trifluoromethyl)phenyl)(3-oxetanyl)methyl)-2-azabicyclo[3.1.0]hexane-3-carboxamide]",1.0296
17,"O=C(NCc1ccc(C(F)(F)F)cc1)[C@H]1CCCN1C(=O)c1cccc(S(=O)(=O)N2CC3(CC3)C2)c1 [Example 350, 1-((3-(5-azaspiro[2.3]hex-5-ylsulfonyl)phenyl)carbonyl)-N-(4-(trifluoromethyl)benzyl)-D-prolinamide]",1.0349
18,"O=C(N[C@@H](c1ccc(C(F)(F)F)cc1F)C1COC1)[C@H]1C[C@H]2C[C@H]2N1C(=O)c1ccccc1NC(=O)C(F)(F)F [Example 351, (1R,3R,5R)-N-((R)-(2-fluoro-4-(trifluoromethyl)phenyl)(3-oxetanyl)methyl)-2-(2-(2,2,2-trifluoroacetamido)benzoyl)-2-azabicyclo[3.1.0]hexane-3-carboxamide]",1.0354
19,"CS(=O)(=O)c1cccc(C(=O)N2C[C@@H](F)C[C@@H]2C(=O)N[C@@H](c2ccc(Cl)cc2F)C2COC2)c1 [Example 352, (4S)-N-((R)-(4-chloro-2-fluorophenyl)(3-oxetanyl)methyl)-4-fluoro-1-(3-(methylsulfonyl)benzoyl)-D-prolinamide]",0.9758
20,"N#CC1CN(S(=O)(=O)N2CCC[C@H](C(=O)N3CCC[C@@H]3C(=O)NCc3cccc(C(F)(F)F)c3)C2)C1 [Example 353, 1-(((3S)-1-((3-cyano-1-azetidinyl)sulfonyl)-3-piperidinyl)carbonyl)-N-(3-(trifluoromethyl)benzyl)-D-prolinamide]",1.0398
21,"CS(=O)(=O)c1cccc(C(=O)N2C[C@H](C(F)F)C[C@@H]2C(=O)N[C@@H](c2ccc(C(F)(F)F)cc2F)C2CC2)c1 [Example 354, (4R)-N-((R)-cyclopropyl(2-fluoro-4-(trifluoromethyl)phenyl)methyl)-4-(difluoromethyl)-1-(3-(methylsulfonyl)benzoyl)-D-prolinamide]",1.0425
22,"N#C[C@H]1C[C@H](S(=O)(=O)c2cccc(C(=O)N3CCCC[C@@H]3C(=O)NCc3ccc(C(F)(F)F)nc3)c2)C1 [Example 355, (2R)-1-((3-((trans-3-cyanocyclobutyl)sulfonyl)phenyl)carbonyl)-N-((6-(trifluoromethyl)-3-pyridinyl)methyl)-2-piperidinecarboxamide]",1.0472
23,"N#CC1CN(S(=O)(=O)N2CCC[C@H](C(=O)N3CCC[C@@H]3C(=O)NCc3cc(F)cc(F)c3F)C2)C1 [Example 356, 1-(((3S)-1-((3-cyano-1-azetidinyl)sulfonyl)-3-piperidinyl)carbonyl)-N-(2,3,5-trifluorobenzyl)-D-prolinamide]",1.0535
24,"Cc1cc(CNC(=O)[C@H]2CCCN2C(=O)[C@H]2CCCN(S(=O)(=O)N3CC(C#N)C3)C2)cc(C(F)(F)F)c1 [Example 358, 1-(((3S)-1-((3-cyano-1-azetidinyl)sulfonyl)-3-piperidinyl)carbonyl)-N-(3-methyl-5-(trifluoromethyl)benzyl)-D-prolinamide]",1.0947
25,"NS(=O)(=O)c1cccc(C(=O)N2CCCC[C@@H]2C(=O)N[C@@H](c2ccc(C(F)(F)F)cc2F)C2CC2)c1 [Example 359, (2R)-N-((R)-cyclopropyl(2-fluoro-4-(trifluoromethyl)phenyl)methyl)-1-(3-sulfamoylbenzoyl)-2-piperidinecarboxamide]",1.1055
26,"N#CC1CN(S(=O)(=O)N2CCC[C@H](C(=O)N3CCC[C@@H]3C(=O)NCc3ccc(F)cc3F)C2)C1 [Example 360, 1-(((3S)-1-((3-cyano-1-azetidinyl)sulfonyl)-3-piperidinyl)carbonyl)-N-(2,4-difluorobenzyl)-D-prolinamide]",1.11
27,"O=C(N[C@@H](c1cc(F)c(C(F)(F)F)cc1F)C1CC1)[C@H]1C[C@H]2C[C@H]2N1C(=O)c1cncc(C(F)(F)F)c1 [Example 361, (1R,3R,5R)-N-((R)-cyclopropyl(2,5-difluoro-4-(trifluoromethyl)phenyl)methyl)-2-((5-(trifluoromethyl)-3-pyridinyl)carbonyl)-2-azabicyclo[3.1.0]hexane-3-carboxamide]",1.1125
